Counter-ions that a name gives are not always drawn.
How the values were obtained:
[1] = system: cultured human mast cells (CHMC); assay: CHMC low cell density IgE activation: tryptase assay; format: cell-based; details: anti-IgE
Method in brief: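 Cultured human mast cells (1000-1500 cells/well, donor-dependent) equilibrated 1 hr at 37° C, then stimulated with anti-IgE for 30 min at 37° C. Tryptase released into the supernatant is measured with a fluorogenic tryptase substrate after 30 min at room temperature.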

[2] = system: cultured human mast cells (CHMC); assay: CHMC low cell density ionomycin activation: tryptase assay; format: cell-based

IC50 [1]	IC50 [2]	Compound
1100 nM	> 10 µM	COC(=O)Cn1ncc2cc(Nc3nc(Nc4ccc5c(c4)OCCO5)ncc3F)ccc21 [R935249, N2-(3,4-Ethylenedioxyphenyl)-5-fluoro-N4-[1-(methoxycarbonyl)methyl-indazoline-5-yl]-2,4-pyrimidinediamine]
1480 nM	> 10 µM	COc1c(C)cc(Nc2nc(Nc3cccc(OCCN4CCNCC4)c3)ncc2F)cc1C [R945157, N4-(3,5-Dimethyl-4-methoxyphenyl)-5-fluoro-N2-[3-[2-(N-piperazino)ethoxy]phenyl]-2,4-pyrimidinediamine Dihydrochloride Salt]
526 nM	1.03 µM	COC(=O)COc1ccc(Nc2ncc(F)c(Nc3ccc4c(cnn4C)c3)n2)cc1 [R935209, 5-Fluoro-N2-[4-(methoxycarbonylmethyleneoxy)phenyl]-N4-(1-methyl-indazoline-5-yl)-2,4-pyrimidinediamine]
124 nM	2.47 µM	COC(=O)COc1ccc(Nc2ncc(F)c(Nc3ccc4c(c3)OCCCO4)n2)cc1 [R935182, 5-Fluoro-N2-[4-(methoxycarbonylmethyleneoxy)phenyl]-N4-(3,4-propylenedioxyphenyl)-2,4-pyrimidinediamine]
262 nM	> 10 µM	CNC(=O)COc1ccc(Nc2ncc(F)c(Nc3ccc4c(c3)OCCO4)n2)cc1 [R909240, N4-(3,4-Ethylendioxyphenyl)-5-fluoro-[4-(N-methylamino)carbonylmethyleneoxyphenyl]-2,4-pyrimidinediamine]
420 nM	> 10 µM	FC(F)(F)c1cnc(Nc2ccc3c(c2)OCCO3)nc1Nc1ccc2c(c1)OCCO2 [R920669]
> 10000 nM	> 10 µM	O=C(O)COc1ccc(Nc2ncc(F)c(Nc3ccc(OCC(=O)O)cc3)n2)cc1 [R926560, N2,N4-Bis(4-carboxymethyleneoxy)phenyl-5-fluoro-2,4-pyrimidinediamine]
> 10000 nM	> 10 µM	O=C(O)COc1cccc(Nc2ncc(F)c(Nc3ccc(O)c(C(=O)O)c3)n2)c1 [R950291, N4-(3-Carboxy-4-hydroxyphenyl)-5-fluoro-N2-[3-carboxymethyleneoxyphenyl]-2,4-pyrimidinediamine]
> 10000 nM	> 10 µM	CCOC(=O)c1cnc(Nc2ccc(OCC(=O)NC)cc2)nc1Nc1cccc(O)c1 [R925839, 5-Ethoxycarbonyl-N4-(3-hydroxyphenyl)-N2-[4-(N-methylamino)carbonylmethyleneoxyphenyl]-2,4-pyrimidinediamine]
810 nM	> 10 µM	CNC(=O)COc1cccc(Nc2nc(Nc3ccc4c(c3)OCCO4)ncc2F)c1 [R926776, N2-(3,4-Ethylenedioxyphenyl)-5-fluoro-N4-[3-(N-methylamino)carbonylmethyeleneoxyphenyl]-2,4-pyrimidinediamine]
307 nM	> 10 µM	COC(=O)COc1cccc(Nc2ncc(F)c(Nc3cc(C)c(O)c(Cl)c3)n2)c1 [R945148, N4-(3-Chloro-4-hydroxy-5-methylphenyl)-5-fluoro-N2-(3-methoxycarbonylmethyleneoxyphenyl)-2,4-pyrimidinediamine]
956 nM	> 10 µM	CNC(=O)COc1cccc(Nc2ncc(F)c(Nc3ccc(OC(F)(F)F)c(C(=O)OC)c3)n2)c1 [R950392, N4-(3-Methoxycarbonyl-4-trifluoromethoxyphenyl)-5-fluoro-N2-[3-(N-methylamino)carbonylmethyleneoxyphenyl]-2,4-pyrimidinediamine]
764 nM	> 10 µM	Fc1cnc(Nc2cccc(C(F)(F)F)c2)nc1Nc1ccc2c(c1)OCCO2 [R926805]
545 nM	> 10 µM	CC(=NO)c1cccc(Nc2ncc(F)c(Nc3cccc(C(C)=NO)c3)n2)c1 [R950379, N2,N4-Bis(3-methylcarbonyloximephenyl)-5-fluoro-2,4-pyrimidinediamine]

From patent US9499493B2, “2,4-pyrimidinediamine compounds and their uses” (Rigel Pharmaceuticals, Inc., priority 2002, dated 2016)
